What all share (experiment): Bliss excess, mean over the matrix (fraction); higher = more synergy
One assay relates to RPMI-7951 (Melanoma). The essentials: (§1)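 Cell lines grown in DMEM/F12 or RPMI with 10% FBS were plated in 1536-well plates and held 24 hours at 37°C, 5% CO2 before 72 hours of exposure to two-drug dose matrices, with DMSO typically at 0.2%. CellTiter-Glo 2.0 luminescence gave viability, which was converted to inhibition. Vehicle wells were set to 0 and blank wells to 1. Combination Emax is the second-highest inhibition in the matrix, and Bliss excess is the observed combination effect minus the expected EA + EB − EA·EB, where EA and EB are the single-agent effects.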

For the next assay, the system named is NH-12 (Neuroblastoma). In a few lines:
as §1

In assay [1] the test system is HuP-T3 (Pancreatic Carcinoma). In a few lines:
as §1

Assay [2] has as its system JHH-7 (Hepatocellular Carcinoma). The essentials:
as §1

For assay [3], the system named is DG-75 (Burkitt's Lymphoma). In a few lines:
as §1

Assay [4] relates to PF-382 (T-Lymphoblastic Leukemia). In a few lines:
as §1

Assay [5] has as its system SCC-9 (Oral Cavity Carcinoma). In a few lines:
as §1

Another assay concerns NB7 (Neuroblastoma). The essentials:
as §1

The test system of assay [6] is HSC-2 (Oral Cavity Carcinoma). The essentials:
as §1

In assay [7] the test system is NCI-H2405 (Lung Adenocarcinoma). In a few lines:
as §1

For assay [8], the system named is NCI-H2347 (Lung Adenocarcinoma). In a few lines:
as §1

Assay [9] relates to NCI-H513 (Other Solid Carcinomas). The essentials:
as §1

The test system of assay [10] is LOU-NH91 (Squamous Cell Lung Carcinoma). In a few lines: as §1
Assay [11] deals with OVISE (Ovarian Carcinoma). The essentials: as §1
In assay [12] the test system is TGBC11TKB (Gastric Carcinoma). The essentials: as §1
The subject of assay [13] is OCUM-1 (Gastric Carcinoma). In a few lines: as §1
In assay [14] the test system is OCUB-M (Breast Carcinoma). In a few lines: as §1
Assay [15] has as its system KLE (Endometrial Carcinoma). The essentials:
as §1

Assay [16] relates to EMC-BAC-2 (Non-Small Cell Lung Carcinoma). In a few lines: as §1
A further assay deals with BT-20 (Breast Carcinoma). In a few lines: as §1

For the molecule `NC1(C(=O)N[C@@H](CCO)c2ccc(Cl)cc2)CCN(c2ncnc3[nH]ccc23)CC1` [Capivasertib] + C[C@@H]1COCCN1C2=NC(=NC(=C2)C3(CC3)[S@](=N)(=O)C)C4=C5C=CNC5=NC=C4 [AZD6738] (first compound max 10 µM, 7x7, partner max 10 µM), the Bliss excess in the assay on RPMI-7951 (Melanoma) is -0.0632; in the assay on NH-12 (Neuroblastoma), -0.0643; in [1], -0.036; in [2], -0.0404; in assay [3] it was -0.0138; in assay [4], -0.0059. The Bliss excess was -0.0111 in assay [5]; -0.0518 in the assay on NB7 (Neuroblastoma); -0.0096 in [6]; -0.0513 in assay [7]; -0.0218 in [8]; -0.0601 in [9]. Further, the Bliss excess in assay [10] was -0.0192; in assay [11] it was -0.0459; in [12] it was -0.09; in assay [13], -0.0088; in assay [14], -0.0241; in assay [15] it was -0.0692. Further, the results for the Bliss excess (in [16]; in the assay on BT-20 (Breast Carcinoma)) were 0.0152 and -0.0442, respectively.

As for `C=CCn1c(=O)c2cnc(Nc3ccc(N4CCN(C)CC4)cc3)nc2n1-c1cccc(C(C)(C)O)n1` [AZD1775] + O=C(c1cc(Cc2n[nH]c(=O)c3ccccc23)ccc1F)N1CCN(C(=O)C2CC2)CC1 [Olaparib] (first compound max 1 µM, partner max 10 µM), the Bliss excess was -0.0176 in the assay on RPMI-7951 (Melanoma); -0.0167 with NH-12 (Neuroblastoma); -0.0047 in assay [1]; -0.0398 in assay [2]; -0.0491 in assay [3]; -0.0265 in assay [4]. In addition, the Bliss excess was -0.0027 in assay [5]; -0.0171 in the assay with NB7 (Neuroblastoma); -0.0249 in assay [6]; -0.0675 in [7]; -0.0921 in assay [8]; -0.0399 in [9]. Moreover, the Bliss excess in [10] was -0.0271; in assay [11], -0.0084; in [12], -0.0299; in assay [13], -0.0214; in assay [14], -0.0211; in [15], -0.0499. The Bliss excess is -0.0526 in [16] and -0.0681 in the assay on BT-20 (Breast Carcinoma).

Take `Cn1cnc2c(F)c(Nc3ccc(Br)cc3Cl)c(C(=O)NOCCO)cc21` [Selumetinib] + C=CCn1c(=O)c2cnc(Nc3ccc(N4CCN(C)CC4)cc3)nc2n1-c1cccc(C(C)(C)O)n1 [AZD1775] (first compound max 10 µM, partner max 1 µM): the Bliss excess in the assay with RPMI-7951 (Melanoma) was -0.0482; in the assay with NH-12 (Neuroblastoma), -0.101; in assay [1], 0.0194; in [2], -0.0198; in assay [3], -0.0637; in assay [4], 0.0137. Further, the Bliss excess in assay [5] is 0.0789; with NB7 (Neuroblastoma), -0.0305; in assay [6] it was -0.0366; in [7] it was 0.0147; in assay [8] it was -0.0164; in assay [9] it was -0.0387. Besides, the Bliss excess in [10] is -0.0144; in [11], -0.0436; in assay [12], -0.0163; in assay [13], -0.0137; in [14], -0.0399; in [15], -0.0117. The Bliss excess was -0.0711 in [16] and -0.0224 in the assay on BT-20 (Breast Carcinoma).

Regarding `COc1nnc2ccc(N3CCC(c4ccc(OCCN5CCN(C)C(=O)[C@H]5C)cc4)CC3)nn12` [AZD5153] + Cn1cnc2c(F)c(Nc3ccc(Br)cc3Cl)c(C(=O)NOCCO)cc21 [Selumetinib] (first compound max 1 µM, 7x7, partner max 10 µM), the Bliss excess was 0.02 in the assay with RPMI-7951 (Melanoma); -0.0476 in the assay on NH-12 (Neuroblastoma); 0.0075 in assay [1]; -0.0274 in assay [2]; -0.0177 in assay [3]; 0.0686 in assay [4]. Moreover, the Bliss excess was 0.042 in assay [5]; -0.0011 in the assay on NB7 (Neuroblastoma); 0.045 in assay [6]; -0.0297 in assay [7]; -0.0361 in assay [8]; -0.051 in assay [9]. For the same molecule, the Bliss excess is -0.0463 in assay [10]; -0.0304 in assay [11]; 0.0671 in [12]; -0.0347 in assay [13]; -0.0036 in assay [14]; -0.0636 in assay [15]. The Bliss excess was -0.0101 in assay [16] and 0.0309 with BT-20 (Breast Carcinoma).

On to `CN(C)CCCOc1ccc(-c2ccc3ncc4c(c3c2)n(C2CCOCC2)c(=O)n4C)cn1` [AZD0156] + C=CCn1c(=O)c2cnc(Nc3ccc(N4CCN(C)CC4)cc3)nc2n1-c1cccc(C(C)(C)O)n1 [AZD1775] (first compound max 1 µM, partner max 1 µM), for which the Bliss excess is -0.0055 in the assay on RPMI-7951 (Melanoma); -0.0406 in the assay with NH-12 (Neuroblastoma); -0.051 in assay [1]; -0.0412 in assay [2]; 0.0097 in assay [3]; -0.0121 in [4]. Further, the Bliss excess was -0.036 in assay [5]; -0.0198 in the assay with NB7 (Neuroblastoma); -0.0507 in assay [6]; -0.0544 in assay [7]; -0.0627 in assay [8]; 0.001 in assay [9]. Also, the Bliss excess in [10] is -0.0349; in [11] it was -0.0374; in assay [12], -0.0482; in assay [13], 0.0183; in assay [14], -0.0958; in [15], 0.0559. Besides, the Bliss excess in assay [16] is -0.0289; with BT-20 (Breast Carcinoma), -0.0937.

For the molecule `C[C@@H]1COCCN1c1cc(C2([S@](C)(=N)=O)CC2)nc(-c2ccnc3[nH]ccc23)n1` [AZD6738] + O=C(c1cc(Cc2n[nH]c(=O)c3ccccc23)ccc1F)N1CCN(C(=O)C2CC2)CC1 [Olaparib] (first compound max 10 µM, 7x7, partner max 10 µM), the Bliss excess in the assay with RPMI-7951 (Melanoma) is 0.0207; with NH-12 (Neuroblastoma) it was -0.0308; in [1], 0.0066; in [2], 0.0012; in [3], -0.0619; in [4], -0.0167. The Bliss excess in assay [5] was 0.0422; in the assay with NB7 (Neuroblastoma), 0.0202; in [6], 0.0825; in [7], 0.0132; in assay [8], -0.0515; in [9] it was 0.0157. For the same molecule, the Bliss excess in assay [10] is 0.0035; in [11] it was 0.0393; in assay [12] it was -0.0236; in assay [13], -0.0399; in [14] it was 0.0347; in assay [15], -0.0307. In addition, the Bliss excess in assay [16] is -0.007; with BT-20 (Breast Carcinoma) it was 0.0472.

For `COc1cccc(OCCCN)c1-c1cc(Nc2cnc(C#N)cn2)n[nH]1` [Prexasertib] + CCc1c2c(nc3ccc(O)cc13)-c1cc3c(c(=O)n1C2)COC(=O)[C@]3(O)CC [SN-38] (first compound max 1 µM, 7x7, partner max 0.3 µM), the Bliss excess with RPMI-7951 (Melanoma) is -0.0265; with NH-12 (Neuroblastoma), -0.078; in assay [1], 0.0335; in assay [2], 0.116; in assay [3], 0.0019; in assay [4], -0.0583. In addition, the Bliss excess in assay [5] is 0.0405; with NB7 (Neuroblastoma), 0.0222; in assay [6] it was -0.0507; in assay [7], -0.058; in assay [8] it was 0.0217; in assay [9] it was -0.0068. The Bliss excess is -0.0648 in [10]; -0.136 in [11]; 0.0252 in [12]; -0.101 in [13]; 0.258 in assay [14]; 0.0285 in assay [15]. In addition, the Bliss excess is -0.0767 in assay [16] and 0.0673 with BT-20 (Breast Carcinoma).

Values taken from the supplement of paper PMC11061612.
